System: 349418-098-R-PDC spheroids, viability, % test/control
Assay: Anticancer human tumor 349418-098-R-PDC patient-derived lung adenocarcinoma cell line growth inhibition [IpAb]
Details: spheroids with HUVEC and MSC; for IC50: curve of first compound; for viability, T/C: stronger effect = lower value
How it was run: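 Combinations with ipatasertib or abemaciclib were tested on tumour spheroids holding HUVEC (25%) and MSC (15%) alongside 60% malignant cells. Top concentration was at or near clinical Cmax (10 microM if undefined), descending in half-log steps.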

[1] = second compound 0.01 µM, first compound 0.0316 µM
[2] = second compound 0.01 µM, first compound 0.1 µM
[3] = second compound 0.01 µM, first compound 0.316 µM
[4] = second compound 0.01 µM, first compound 1 µM
[5] = second compound 0.01 µM, first compound 3.16 µM
[6] = second compound 0.01 µM, first compound 10 µM
[7] = second compound 0.0316 µM, first compound 0.0316 µM
[8] = second compound 0.0316 µM, first compound 0.1 µM
[9] = second compound 0.0316 µM, first compound 0.316 µM
[10] = second compound 0.0316 µM, first compound 1 µM
[11] = second compound 0.0316 µM, first compound 3.16 µM
[12] = second compound 0.0316 µM, first compound 10 µM
[13] = second compound 0.1 µM, first compound 0.0316 µM
[14] = second compound 0.1 µM, first compound 0.1 µM
[15] = second compound 0.1 µM, first compound 0.316 µM
[16] = second compound 0.1 µM, first compound 1 µM
[17] = second compound 0.1 µM, first compound 3.16 µM
[18] = second compound 0.1 µM, first compound 10 µM
[19] = second compound 0.316 µM, first compound 0.0316 µM
[20] = second compound 0.316 µM, first compound 0.1 µM
[21] = second compound 0.316 µM, first compound 0.316 µM
[22] = second compound 0.316 µM, first compound 1 µM
[23] = second compound 0.316 µM, first compound 3.16 µM
[24] = second compound 0.316 µM, first compound 10 µM
[25] = second compound 1 µM, first compound 0.0316 µM
[26] = second compound 1 µM, first compound 0.1 µM
[27] = second compound 1 µM, first compound 0.316 µM
[28] = second compound 1 µM, first compound 1 µM
[29] = second compound 1 µM, first compound 3.16 µM
[30] = second compound 1 µM, first compound 10 µM
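Note: spheroids exposed to compounds for 7 days.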

| Structure (SMILES) | IC50 (second compound 0.01 µM) [nM] | IC50 (second compound 0.0316 µM) [nM] | IC50 (second compound 0.1 µM) [nM] | IC50 (second compound 0.316 µM) [nM] | IC50 (second compound 1 µM) [nM] | viability, T/C [1] [%] | viability, T/C [2] [%] | viability, T/C [3] [%] | viability, T/C [4] [%] | viability, T/C [5] [%] | viability, T/C [6] [%] | viability, T/C [7] [%] | viability, T/C [8] [%] | viability, T/C [9] [%] | viability, T/C [10] [%] | viability, T/C [11] [%] | viability, T/C [12] [%] | viability, T/C [13] [%] | viability, T/C [14] [%] | viability, T/C [15] [%] | also measured |
| --- | --- | --- | --- | --- | --- | --- | --- | --- | --- | --- | --- | --- | --- | --- | --- | --- | --- | --- | --- | --- | --- |
| CCCS(=O)(=O)Nc1ccc(F)c(C(=O)c2c[nH]c3ncc(-c4ccc(Cl)cc4)cc23)c1F + CCN1CCN(Cc2ccc(Nc3ncc(F)c(-c4cc(F)c5nc(C)n(C(C)C)c5c4)n3)nc2)CC1 | 91.3 | < 31.6 | < 31.6 | < 31.6 | < 31.6 | 59.7 | 50.3 | 32.9 | 37.3 | 27.6 | 16.7 | 34.7 | 23.7 | 27.6 | 28.3 | 20.8 | 11.4 | 18.8 | 17.6 | 17.3 | viability, T/C [16]: 17.2%; viability, T/C [17]: 14.2%; viability, T/C [18]: 8.97%; viability, T/C [19]: 14.3%; viability, T/C [20]: 13.6%; viability, T/C [21]: 12.5%; viability, T/C [22]: 10.8%; viability, T/C [23]: 10.5%; viability, T/C [24]: 9.39%; viability, T/C [25]: 14.1%; viability, T/C [26]: 11.8%; viability, T/C [27]: 11.1%; viability, T/C [28]: 9.39%; viability, T/C [29]: 9.24%; viability, T/C [30]: 7.05% |
| Cn1ncc(Cl)c1-c1cc(C(=O)NC(CN)Cc2cccc(F)c2)sc1Cl (stereo not given) + CCN1CCN(Cc2ccc(Nc3ncc(F)c(-c4cc(F)c5nc(C)n(C(C)C)c5c4)n3)nc2)CC1 | 49.8 | < 31.6 | < 31.6 | < 31.6 | < 31.6 | 63.1 | 28.6 | 17.1 | 9.53 | 6.15 | 0.1 | 36.9 | 18.1 | 9.18 | 7.63 | 5.83 | 0.14 | 21.3 | 12.5 | 8.7 | viability, T/C [16]: 6.91%; viability, T/C [17]: 5.88%; viability, T/C [18]: 0.09%; viability, T/C [19]: 16%; viability, T/C [20]: 12.5%; viability, T/C [21]: 8.98%; viability, T/C [22]: 6.46%; viability, T/C [23]: 4.96%; viability, T/C [24]: 0.19%; viability, T/C [25]: 14%; viability, T/C [26]: 11.7%; viability, T/C [27]: 9.07%; viability, T/C [28]: 8.54%; viability, T/C [29]: 3.59%; viability, T/C [30]: 0.24% |

— PubChem BioAssay AID2060340 (Molecular Pharmacology Branch, DTP, NCI, 2025)
